Assay results reported in EP0041644B1 (priority 1980, dated 1981).

Key:
L1210 Leukemia = L1210 Leukemia - Test 2; type: in vivo, mice
B16 Melanoma = B16 Melanoma - Test 1 (ip tumor brei); type: in vivo, mice; settings: QD 1→9, vehicle Saline

Q: Which results are given for `N.N.[Cl][Pt][Cl]` [Cis-DDP, cis-diammine dichloroplatinum (II)]?
A: Average Weight Change,g (L1210 Leukemia; 0.4 mg/kg/inj ip, qd 1→9): +1.6 g; Effect MST % T/C (L1210 Leukemia; 0.4 mg/kg/inj ip, qd 1→9): 100 % T/C; MST Days (L1210 Leukemia; 0.4 mg/kg/inj ip, qd 1→9): 7.0 days; Survivors Day 5(30) (L1210 Leukemia; 0.4 mg/kg/inj ip, qd 1→9): 6/6; Average Weight Change (L1210 Leukemia; 0.8 mg/kg/inj ip, qd 1→9): -0.7 g; Effect MST % T/C (L1210 Leukemia; 0.8 mg/kg/inj ip, qd 1→9): 107 % T/C; MST Days (L1210 Leukemia; 0.8 mg/kg/inj ip, qd 1→9): 7.5 days; Survivors Day 5(30) (L1210 Leukemia; 0.8 mg/kg/inj ip, qd 1→9): 6/6; Average Weight Change (L1210 Leukemia; 1.6 mg/kg/inj ip, qd 1→9): -2.2 g; Effect MST % T/C (L1210 Leukemia; 1.6 mg/kg/inj ip, qd 1→9): 157 % T/C; MST Days (L1210 Leukemia; 1.6 mg/kg/inj ip, qd 1→9): 11.0 days; Survivors Day 5(30) (L1210 Leukemia; 1.6 mg/kg/inj ip, qd 1→9): 6/6; Average Weight Change,g (L1210 Leukemia; 2 mg/kg/inj iv, d.1, 5 & 9): +1.7 g; Effect MST % T/C (L1210 Leukemia; 2 mg/kg/inj iv, d.1, 5 & 9): 100 % T/C; MST Days (L1210 Leukemia; 2 mg/kg/inj iv, d.1, 5 & 9): 7.0 days; Survivors Day 5(30) (L1210 Leukemia; 2 mg/kg/inj iv, d.1, 5 & 9): 6/6; Average Weight Change (L1210 Leukemia; 2.4 mg/kg/inj ip, qd 1→9): -3.3 g; Effect MST % T/C (L1210 Leukemia; 2.4 mg/kg/inj ip, qd 1→9): 214 % T/C; MST Days (L1210 Leukemia; 2.4 mg/kg/inj ip, qd 1→9): 15.0 days; Survivors Day 5(30) (L1210 Leukemia; 2.4 mg/kg/inj ip, qd 1→9): 6/6; Average Weight Change (L1210 Leukemia; 4 mg/kg/inj ip, d.1): -0.7 g; Effect MST % T/C (L1210 Leukemia; 4 mg/kg/inj ip, d.1): 136 % T/C; MST Days (L1210 Leukemia; 4 mg/kg/inj ip, d.1): 9.5 days; Survivors Day 5(30) (L1210 Leukemia; 4 mg/kg/inj ip, d.1): 6/6; Average Weight Change,g (L1210 Leukemia; 4 mg/kg/inj iv, d.1): +1.8 g; Effect MST % T/C (L1210 Leukemia; 4 mg/kg/inj iv, d.1): 100 % T/C; MST Days (L1210 Leukemia; 4 mg/kg/inj iv, d.1): 7.0 days; Survivors Day 5(30) (L1210 Leukemia; 4 mg/kg/inj iv, d.1): 6/6; Average Weight Change,g (L1210 Leukemia; 4 mg/kg/inj iv, d.1, 5 & 9): +0.8 g; Effect MST % T/C (L1210 Leukemia; 4 mg/kg/inj iv, d.1, 5 & 9): 100 % T/C; MST Days (L1210 Leukemia; 4 mg/kg/inj iv, d.1, 5 & 9): 7.0 days; Survivors Day 5(30) (L1210 Leukemia; 4 mg/kg/inj iv, d.1, 5 & 9): 6/6; Average Weight Change (L1210 Leukemia; 6 mg/kg/inj ip, d.1): -1.8 g; Effect MST % T/C (L1210 Leukemia; 6 mg/kg/inj ip, d.1): 171 % T/C; MST Days (L1210 Leukemia; 6 mg/kg/inj ip, d.1): 12.0 days; Survivors Day 5(30) (L1210 Leukemia; 6 mg/kg/inj ip, d.1): 6/6; Average Weight Change (L1210 Leukemia; 6 mg/kg/inj iv, d.1): -0.2 g; Effect MST % T/C (L1210 Leukemia; 6 mg/kg/inj iv, d.1): 114 % T/C; MST Days (L1210 Leukemia; 6 mg/kg/inj iv, d.1): 8.0 days; Survivors Day 5(30) (L1210 Leukemia; 6 mg/kg/inj iv, d.1): 6/6; Average Weight Change (L1210 Leukemia; 6 mg/kg/inj iv, d.1, 5 & 9): -1.1 g; Effect MST % T/C (L1210 Leukemia; 6 mg/kg/inj iv, d.1, 5 & 9): 164 % T/C; MST Days (L1210 Leukemia; 6 mg/kg/inj iv, d.1, 5 & 9): 11.5 days; Survivors Day 5(30) (L1210 Leukemia; 6 mg/kg/inj iv, d.1, 5 & 9): 6/6; Average Weight Change (L1210 Leukemia; 8 mg/kg/inj ip, d.1): -2.8 g; Effect MST % T/C (L1210 Leukemia; 8 mg/kg/inj ip, d.1): 186 % T/C; MST Days (L1210 Leukemia; 8 mg/kg/inj ip, d.1): 13.0 days; Survivors Day 5(30) (L1210 Leukemia; 8 mg/kg/inj ip, d.1): 6/6; Average Weight Change (L1210 Leukemia; 8 mg/kg/inj iv, d.1): -3.7 g; Effect MST % T/C (L1210 Leukemia; 8 mg/kg/inj iv, d.1): 129 % T/C; MST Days (L1210 Leukemia; 8 mg/kg/inj iv, d.1): 9.0 days; Survivors Day 5(30) (L1210 Leukemia; 8 mg/kg/inj iv, d.1): 6/6; Average Weight Change (L1210 Leukemia; 8 mg/kg/inj iv, d.1, 5 & 9): -2.1 g; Effect MST % T/C (L1210 Leukemia; 8 mg/kg/inj iv, d.1, 5 & 9): 179 % T/C; MST Days (L1210 Leukemia; 8 mg/kg/inj iv, d.1, 5 & 9): 12.5 days; Survivors Day 5(30) (L1210 Leukemia; 8 mg/kg/inj iv, d.1, 5 & 9): 6/6; Average Weight Change (L1210 Leukemia; 10 mg/kg/inj ip, d.1): -4.4 g; Effect MST % T/C (L1210 Leukemia; 10 mg/kg/inj ip, d.1): 214 % T/C; MST Days (L1210 Leukemia; 10 mg/kg/inj ip, d.1): 15.0 days; Survivors Day 5(30) (L1210 Leukemia; 10 mg/kg/inj ip, d.1): 6/6; Average Weight Change (L1210 Leukemia; 10 mg/kg/inj iv, d.1): -3.9 g; Effect MST % T/C (L1210 Leukemia; 10 mg/kg/inj iv, d.1): 143 % T/C; MST Days (L1210 Leukemia; 10 mg/kg/inj iv, d.1): 10.0 days; Survivors Day 5(30) (L1210 Leukemia; 10 mg/kg/inj iv, d.1): 6/6; maximum T/C (L1210 Leukemia; iv, multi-dose regimen): 179%; maximum T/C (L1210 Leukemia; multi-dose therapy ip (qd 1→9)): 207-214%; maximum T/C (L1210 Leukemia; single ip doses, ip L1210): 214%; Av. Wt. Change, g Day 5 (B16 Melanoma; 0.8 mg/kg/day ip): -1.0 g; Effect MST % T/C (B16 Melanoma; 0.8 mg/kg/day ip): 174 % T/C; MST Days (B16 Melanoma; 0.8 mg/kg/day ip): 34.0 days; Av. Wt. Change, g Day 5 (B16 Melanoma; 1.6 mg/kg/day ip): -4.3 g; Effect MST % T/C (B16 Melanoma; 1.6 mg/kg/day ip): 36 % T/C; MST Days (B16 Melanoma; 1.6 mg/kg/day ip): 7.0 days; Av. Wt. Change, g Day 5 (B16 Melanoma; 2.0 mg/kg/day ip): -4.5 g; Effect MST % T/C (B16 Melanoma; 2.0 mg/kg/day ip): 36 % T/C; MST Days (B16 Melanoma; 2.0 mg/kg/day ip): 7.0 days
